We go through one molecule from patent US20260248820A1, “USES OF HYDROGENATED CANNABIDIOL (H4CBD) AND ADVANCED METABOLIC SYNDROME” (The Regents of the University of California, priority 2022, published 2026).

SMILES strings stand for the structures.

This experiment has as its system proteins involved in fatty acid uptake, metabolism and storage (liver). The experiment in a line: Western blot of liver proteins involved in fatty acid uptake, metabolism and storage. Format: in vivo, rat. From the text:
Western Blot—Liver was used to measure proteins involved in fatty acid uptake, metabolism and storage. Densitometry values were quantified using ImageJ software (NIH) and normalized by correcting for densitometry values of representative protein bands below 37 kDa stained with Ponceau S. Results are reported as expression (%) compared to LETO.
Background: A western blot detects proteins with antibodies after separation by electrophoresis.

On to `CCCCCc1cc(O)c(C2CC(C)CCC2C(C)C)c(O)c1` (stereo not shown) [H4CBD, 2-(2-isopropyl-5-methylcyclohexyl)-5-pentylbenzene-1,3-diol], for which the “Downstream signaling proteins GPAM, DGAT1, CPTIA, ACOX1, ApoB and PRDX6” value (data not shown) is given as “comparable between groups”. For the setting “increased 109% in OLETF vs LETO”, the FATP5 expression entry was “not effected”. Also, where the note is “p<0.05”, the “Increase of FATP2 expression” value was determined as 60% and the “Rescue (increase) of CD36 expression” value was found to be 48%.
